The source made the active and inactive calls. No cut-off for these calls is given here.
How the values were obtained:
K562 [1] = test: Antiproliferative activity against human K562 cells after 5 days by MTT assay; format: functional, cell-based
K562 [2] = test: Cell cycle arrest in human K562 cells assessed as accumulation at G0/G1 phase at 20 nM after 24 hrs by propidium iodide staining-based flow cytometry; format: functional
K562 [3] = test: Cell cycle arrest in human K562 cells assessed as accumulation at S phase at 20 nM after 24 hrs by propidium iodide staining-based flow cytometry; format: functional
K562 [4] = test: Cell cycle arrest in human K562 cells assessed as accumulation at G2/M phase at 20 nM after 24 hrs by propidium iodide staining-based flow cytometry; format: functional
[5] = Inhibition of tubulin assembly by Woods method
[6] = Displacement of [3H]colchicine from tubulin assessed as bound colchicine at […] incubated in dark for 2 hrs by scintillation spectroscopy
HUVEC = test: Antivascular activity in HUVEC cells assessed as change in cell shape at 1 uM after 1 hr by fluorescent-labeled high molecular weight F-dextran permeability assay; format: functional, cell-based; conditions: Homo sapiens

Which IC50 (K562 [1]; Homo sapiens, K562, 120 h) does the source give for `COc1ccc(/C=C/C(=O)c2ccc(OC)cc2)cc1` [4,4'-DIMETHOXYCHALCONE] here?
The IC50 was 15 µM.

Which results are given for `COc1ccc(/C=C(\C)C(=O)c2cc(OC)c(OC)c(OC)c2)cc1[N+](=O)[O-]`?
Activity (K562 [2]): 36%; Activity (K562 [3]): 36%; Activity (K562 [4]): 28%; IC50 [5]: > 10 µM; IC50 (K562 [1]; Homo sapiens, K562, 120 h): 0.06 µM

With `COc1cc(C(=O)[C@H]2O[C@@H]2c2cc(OC)c(OC)c(OC)c2)cc(OC)c1OC` (relative stereo) as the compound, how does the IC50 (K562 [1]; Homo sapiens, K562, 120 h) read?
The IC50 was 3.7 µM.

Which IC50 (K562 [1]; Homo sapiens, K562, 120 h) does the source give for `COc1cc(/C=C/C(=O)c2ccc3c(c2)OCCO3)cc(OC)c1OC` here?
Its IC50 is 5.6 µM.

With `COc1cc(C(=O)/C=C/c2ccc(Cl)cc2Cl)cc(OC)c1OC` as the compound, how does the IC50 (K562 [1]; Homo sapiens, K562, 120 h) read?
Its IC50 is 3.8 µM.

For `COc1ccc(CCC(O)c2cc(OC)c(OC)c(OC)c2)cc1` (configuration not stated), which IC50 (K562 [1]; Homo sapiens, K562, 120 h) is on record?
Its IC50 is 4 µM.

Which IC50 (K562 [1]; Homo sapiens, K562, 120 h) does the source give for `COc1ccc(C(=O)/C=C/c2cc(OC)c(OC)c(OC)c2)c(O)c1` here?
Its IC50 is 4.4 µM.

Which IC50 (K562 [1]; Homo sapiens, K562, 120 h) does the source give for `COc1ccc(OC)c(/C=C/C(=O)c2ccc3c(c2)OCO3)c1` here?
Its IC50 is 6.4 µM.

With `COc1ccc(CCC(O)c2cc(OC)c(OC)c(OC)c2)cc1O` (configuration not stated) as the compound, how does the IC50 (K562 [1]; Homo sapiens, K562, 120 h) read?
The IC50 was 1 µM.

With `O=C(/C=C/c1ccccc1)c1ccccc1` [CHALCONE] as the compound, how does the IC50 (K562 [1]; Homo sapiens, K562, 120 h) read?
Its IC50 is 3.8 µM.

Which IC50 (K562 [1]; Homo sapiens, K562, 120 h) does the source give for `COc1cc(OC)c(C=C(C)C(=O)c2cc(OC)c(OC)c(OC)c2)c(OC)c1` here?
Its IC50 is greater than 25 µM.

For `COc1ccc(/C=C/C(=O)c2ccc3c(c2)OCO3)cc1OC`, which IC50 (K562 [1]; Homo sapiens, K562, 120 h) is on record?
The IC50 was 7.1 µM.

For `COc1cc(OC)c(C(=O)/C=C/c2ccc(OC)c(OC)c2OC)c(OC)c1`, which Activity (K562 [2]) is on record?
The Activity was 10%.

What about the Activity (K562 [3]) of the same compound?
Its Activity is 16%.

And the Activity [6]?
The Activity was 27%.

What about the Activity (K562 [4]) of the same compound?
Its Activity is 74%.

And the IC50 [5]?
The IC50 was 15 µM.

And the IC50 (K562 [1]; Homo sapiens, K562, 120 h)?
Its IC50 is 0.3 µM.

For `COc1cc(C(=O)/C=C/c2ccc(O)c(O)c2)cc(OC)c1OC`, which IC50 (K562 [1]; Homo sapiens, K562, 120 h) is on record?
The IC50 was 1.2 µM.

Which IC50 (K562 [1]; Homo sapiens, K562, 120 h) does the source give for `COc1ccc(/C=C/C(=O)c2ccc(O)cc2)cc1` here?
Its IC50 is 9.9 µM.

Which IC50 (K562 [1]; Homo sapiens, K562, 120 h) does the source give for `COc1ccc(/C=C/C(=O)c2ccc(OC)c(OC)c2)cc1OC` here?
The IC50 was 2.2 µM.

For `COc1ccc(/C=C/C(=O)c2cc(OC)c(OC)c(OC)c2)cc1N`, which Activity (K562 [2]) is on record?
The Activity was 48%.

And the Activity (K562 [3])?
Its Activity is 33%.

And the Activity (K562 [4])?
Its Activity is 19%.

And the IC50 [5]?
The IC50 was 2 µM.

What about the IC50 (K562 [1]; Homo sapiens, K562, 120 h) of the same compound?
The IC50 was 0.01 µM.

Which IC50 (K562 [1]; Homo sapiens, K562, 120 h) does the source give for `CCCO/C(=C\c1cc(F)c(OC)c(F)c1)C(=O)c1cc(OC)c(OC)c(OC)c1` here?
Its IC50 is 0.22 µM.

Which IC50 (K562 [1]; Homo sapiens, K562, 120 h) does the source give for `COc1ccc(/C=C/C(=O)c2ccc(OC)c(OC)c2)cc1` here?
Its IC50 is 10 µM.

Which IC50 (K562 [1]; Homo sapiens, K562, 120 h) does the source give for `COc1cc(C(=O)/C=C/c2cc(OC)c(OC)c(OC)c2)ccc1O` here?
The IC50 was 3.5 µM.

Which IC50 (K562 [1]; Homo sapiens, K562, 120 h) does the source give for `COc1ccc(C(=O)[C@H]2O[C@@H]2c2ccc(OC)c(OC)c2)cc1` (racemic) here?
Its IC50 is greater than 30 µM.

For `COc1ccc(/C=C/C(O)c2cc(OC)c(OC)c(OC)c2)cc1` (configuration not stated), which IC50 (K562 [1]; Homo sapiens, K562, 120 h) is on record?
The IC50 was 4 µM.

For `Cc1ccc(/C=C/C(=O)c2ccc(C)cc2)cc1` [4,4'-DIMETHYLCHALCONE], which IC50 (K562 [1]; Homo sapiens, K562, 120 h) is on record?
Its IC50 is 11 µM.

Which IC50 (K562 [1]; Homo sapiens, K562, 120 h) does the source give for `CCO/C(=C\c1cc(F)c(OC)c(F)c1)C(=O)c1cc(OC)c(OC)c(OC)c1` here?
The IC50 was 0.23 µM.

Which IC50 (K562 [1]; Homo sapiens, K562, 120 h) does the source give for `COc1ccc(/C=C/C(=O)c2ccc(OC)c(OC)c2OC)cc1` here?
The IC50 was 0.3 µM.

With `COc1ccc(C(=O)/C(C)=C/c2ccc(OC)c(OP(=O)(O)O)c2)cc1` as the compound, how does the IC50 (K562 [1]; k562) read?
The IC50 was 0.5 µM.

Which IC50 (K562 [1]; Homo sapiens, K562, 120 h) does the source give for `COc1ccc([C@H]2O[C@@H]2C(=O)c2ccc(C)cc2)cc1` (racemic) here?
Its IC50 is 15 µM.

With `COc1ccc(C(=O)/C=C/c2ccc(Cl)cc2)c(O)c1` as the compound, how does the IC50 (K562 [1]; Homo sapiens, K562, 120 h) read?
The IC50 was 9.7 µM.

For `COc1ccc(/C=C/C(=O)c2ccc(OC)c(OC)c2OC)cc1O`, which Activity (K562 [2]) is on record?
Its Activity is 32%.

What about the Activity (K562 [3]) of the same compound?
The Activity was 28%.

What about the Activity (K562 [4]) of the same compound?
The Activity was 40%.

What about the IC50 [5] of the same compound?
Its IC50 is 0.45 µM.

And the IC50 (K562 [1]; Homo sapiens, K562, 120 h)?
Its IC50 is 0.01 µM.

Which IC50 (K562 [1]; Homo sapiens, K562, 120 h) does the source give for `COc1ccc(C(=O)/C=C/c2cc(OC)ccc2OC)c(Cl)c1` here?
The IC50 was 4 µM.

For `COc1ccc(/C=C\c2cc(OC)c(OC)c(OC)c2)cc1OP(=O)(O)O`, which Activity (HUVEC) is on record?
The Activity was “Active”.

For `COc1ccc(/C=C/C(=O)c2cc(OC)c(OC)c(OC)c2)cc1OC`, which Activity (K562 [2]) is on record?
The Activity was 31%.

And the Activity (K562 [3])?
The Activity was 25%.

And the Activity [6]?
The Activity was 62%.

And the Activity (K562 [4])?
Its Activity is 44%.

What about the IC50 [5] of the same compound?
Its IC50 is greater than 25 µM.

What about the IC50 (K562 [1]; Homo sapiens, K562, 120 h) of the same compound?
The IC50 was 0.3 µM.

For `COc1ccc(CCC(=O)c2cc(OC)c(OC)c(OC)c2)cc1`, which IC50 (K562 [1]; Homo sapiens, K562, 120 h) is on record?
Its IC50 is 10 µM.

Which results are given for `COc1ccc(C(=O)/C=C/c2ccc(OC)c(OP(=O)([O-])[O-])c2)cc1.[Na+].[Na+]`?
Activity (K562 [2]): 22%; Activity (K562 [3]): 14%; Activity (K562 [4]): 64%; IC50 [5]: 39 µM; IC50 (K562 [1]; k562): 0.008 µM

With `COc1ccc([C@H]2O[C@@H]2C(=O)c2cc(OC)c(OC)c(OC)c2)cc1` (racemic) as the compound, how does the IC50 (K562 [1]; Homo sapiens, K562, 120 h) read?
The IC50 was 4.9 µM.

With `COc1ccc(C(=O)/C(C)=C/c2ccc(OC)c(OP(=O)([O-])[O-])c2)cc1.[Na+].[Na+]` as the compound, how does the Activity (K562 [2]) read?
The Activity was 21%.

What about the Activity (K562 [3]) of the same compound?
The Activity was 10%.

And the Activity (K562 [4])?
The Activity was 69%.

What about the IC50 [5] of the same compound?
The IC50 was 3.1 µM.

And the IC50 (K562 [1]; k562)?
Its IC50 is 0.00012 µM.

With `COc1cc(/C=C/C(=O)c2cc(OC)c(OC)c(OC)c2)cc(OC)c1OC` as the compound, how does the IC50 (K562 [1]; Homo sapiens, K562, 120 h) read?
Its IC50 is 1.5 µM.

For `COc1cc(C(=O)/C=C/c2ccc(F)cc2)cc(OC)c1OC`, which IC50 (K562 [1]; Homo sapiens, K562, 120 h) is on record?
Its IC50 is 1.5 µM.

For `COc1cc(/C=C/C(=O)c2ccc3c(c2)OCO3)cc(OC)c1OC`, which IC50 (K562 [1]; Homo sapiens, K562, 120 h) is on record?
The IC50 was 2.9 µM.

For `COc1ccc(/C=C/C(O)c2cc(OC)c(OC)c(OC)c2)cc1O` (configuration not stated), which IC50 (K562 [1]; Homo sapiens, K562, 120 h) is on record?
Its IC50 is 0.5 µM.

With `COc1cc(/C=C/C(=O)c2ccccc2)cc(OC)c1OC` as the compound, how does the IC50 (K562 [1]; Homo sapiens, K562, 120 h) read?
The IC50 was 1.6 µM.

For `COc1ccc(/C=C/C(=O)c2ccc(OC)cc2OC)cc1` [METOCHALCONE], which IC50 (K562 [1]; Homo sapiens, K562, 120 h) is on record?
Its IC50 is 2.7 µM.

From ChEMBL document CHEMBL1152676, “Combretastatin-like chalcones as inhibitors of microtubule polymerization. Part 1: synthesis and biological evaluation of antivascular activity” (Bioorg Med Chem, 2009)
